# According to article PMC11451537, “P2X7 receptors exhibit at least three modes of allosteric antagonism” (Science Advances, 2024):
# Numbering of substitutions follows the chain as printed.
# How the values were obtained:
# Type in all cases: cell-based
# [1] = molecular target: T1, rP2X7-F88A (Rattus norvegicus, UniProt Q64663, F88A); experiment: TEVC inhibition dose-response, rP2X7-F88A mutant; conditions: read-out: IC50 (inhibitory potency), F88A
# T1 sequence (Q64663 1-595 F88A): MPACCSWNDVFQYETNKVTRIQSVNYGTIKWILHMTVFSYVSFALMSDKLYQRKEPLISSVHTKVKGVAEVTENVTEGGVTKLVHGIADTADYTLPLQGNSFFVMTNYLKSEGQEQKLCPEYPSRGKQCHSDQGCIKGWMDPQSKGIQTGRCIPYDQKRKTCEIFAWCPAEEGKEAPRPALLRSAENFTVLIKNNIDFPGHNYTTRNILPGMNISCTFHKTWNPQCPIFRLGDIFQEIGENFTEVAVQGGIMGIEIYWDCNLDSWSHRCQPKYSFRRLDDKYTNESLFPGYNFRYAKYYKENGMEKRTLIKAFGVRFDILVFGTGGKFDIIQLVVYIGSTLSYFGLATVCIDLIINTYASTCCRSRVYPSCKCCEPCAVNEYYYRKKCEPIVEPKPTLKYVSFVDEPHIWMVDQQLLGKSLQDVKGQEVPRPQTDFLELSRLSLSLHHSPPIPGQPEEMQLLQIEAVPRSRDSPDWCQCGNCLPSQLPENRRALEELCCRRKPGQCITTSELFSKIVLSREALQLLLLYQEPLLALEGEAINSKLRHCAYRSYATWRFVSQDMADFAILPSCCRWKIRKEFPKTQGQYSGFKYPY
# Text: (§1) Structural determination of the full-length, wild-type rP2X7 was completed using a construct previously described containing no truncations or mutations ([16]). Furthermore, the rP2X7-WT construct used for electrophysiology experiments is unmodified full-length, wild-type rP2X7 with no green fluorescent protein (GFP), protease sites, or affinity tags present. The hP2X1-WT, hP2X2-WT, hP2X3-WT, hP2X4-WT, and hP2X7-WT constructs used for electrophysiology are similarly unmodified full-length, wild-type receptor constructs with no GFP, protease sites, or affinity tags present. Mutations to the rP2X7-WT construct used for electrophysiology experiments were made directly in the pcDNA3.1x plasmid. These constructs included the following: rP2X7-K297A, rP2X7-K297G, rP2X7-K297M, rP2X7-K297Q, rP2X7-K297V, rP2X7-Y298A, rP2X7-Y298G, rP2X7-Y298V, rP2X7-Y298L, rP2X7-R316A, rP2X7-R316G, rP2X7-R316Q, rP2X7-R316H, rP2X7-F88A, rP2X7-F103A, and rP2X7-Y295A.
# (§2) To evaluate the inhibitory response of an antagonist for a dilution series, an initial excitatory signal was evoked at a subtype-specific concentration of ATP. Next, the antagonist was applied at a test concentration for 60 s and then coapplied at the same test concentration of the antagonist with the identical subtype-specific concentration of ATP. The antagonized signal was then normalized against the preceding excitatory signal evoked by ATP for each individual oocyte tested. The pre- and post-antagonist signals were evoked by 10 μM ATP for hP2X1, 10 μM ATP for hP2X2, 1 μM ATP for hP2X3, 50 μM ATP for hP2X4, and 100 μM ATP for P2X7. For the K297V mutation in rP2X7, pre- and post-antagonist signals were evoked by 300 μM ATP. Each dataset was then fit to a nonlinear regression named “[inhibitor] vs. response – Variable slope (four parameters)” in GraphPad Prism 9 to produce a sigmoidal curve and afford an IC50 value. Each singular condition was used to generate an average which is reported plus or minus its SD between three discrete trials.
# [2] = molecular target: T2, rP2X7-F103A (Rattus norvegicus, UniProt Q64663, F103A); experiment: TEVC inhibition dose-response, rP2X7-F103A mutant; conditions: for IC50: reduced expression and variable response to ATP, read-out: IC50 (inhibitory potency), F103A
# T2 sequence (Q64663 1-595 F103A): T1 sequence (Q64663 1-595 F88A) with A88F, F103A
# Text: as §1, §2
# [3] = molecular target: T3, hP2X4 (Homo sapiens, UniProt Q99571); experiment: TEVC inhibition dose-response (IC50), hP2X4 in Xenopus laevis oocytes; conditions: 50 μM ATP, mean ± SD, triplicate
# T3 sequence (Q99571 1-388): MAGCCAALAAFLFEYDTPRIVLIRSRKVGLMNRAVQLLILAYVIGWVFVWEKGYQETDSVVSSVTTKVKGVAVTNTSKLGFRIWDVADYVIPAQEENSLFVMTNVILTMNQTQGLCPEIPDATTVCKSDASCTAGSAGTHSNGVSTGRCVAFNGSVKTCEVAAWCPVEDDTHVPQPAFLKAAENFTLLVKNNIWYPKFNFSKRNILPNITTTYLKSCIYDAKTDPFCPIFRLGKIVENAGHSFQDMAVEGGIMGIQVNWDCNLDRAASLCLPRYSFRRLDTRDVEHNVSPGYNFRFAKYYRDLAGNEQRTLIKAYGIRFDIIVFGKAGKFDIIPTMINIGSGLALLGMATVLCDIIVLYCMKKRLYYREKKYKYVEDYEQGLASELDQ
# Text: as §2
Structure (SMILES),IC50 [1] [µM],IC50 [2] [µM],"inhibition at 625 nM, F103A ([2]; 625 nM antagonist)",IC50 [3] [µM],inhibition at 30 µM ([2]; 30 µM antagonist) [%]
Clc1cccc(-c2nnnn2Cc2cccnc2)c1Cl [A438079],14 ± 1,> 10,,,
Clc1cccc(-n2nnnc2NCc2ccccc2Oc2ccccn2)c1Cl [A839977],1.9 ± 0.2,> 1,,,
O=C(NCC12CC3CC(CC(C3)C1)C2)c1cc(CCCNCCCO)ccc1Cl [AZD9056],0.13 ± 0.01,> 10,,,
CN1C(=O)CC[C@H]1C(=O)NCc1cccc(C(F)(F)F)c1Cl [GSK1482160],13 ± 3,> 20,,,
O=C(NCC1(N2CCN(c3ccccc3)CC2)CCOCC1)c1cccnc1Sc1ccccc1 [JNJ47965567],0.8 ± 0.1,,50-80%,,
O=S(=O)(O)c1ccc(N=C2C=CC(=C(c3ccc(Nc4ccc(S(=O)(=O)O)cc4)cc3)c3ccc(Nc4ccc(S(=O)(=O)O)cc4)cc3)C=C2)cc1 [methyl blue],5 ± 2,,,51 ± 6,50 to 75
